In US20220016115A1, “USP19 INHIBITORS FOR USE IN THERAPY” (ALMAC DISCOVERY LIMITED, priority 2018, published 2022):

Molecular target: T1, USP19 (Homo sapiens, UniProt O94966)
T1 sequence (O94966 1-1318): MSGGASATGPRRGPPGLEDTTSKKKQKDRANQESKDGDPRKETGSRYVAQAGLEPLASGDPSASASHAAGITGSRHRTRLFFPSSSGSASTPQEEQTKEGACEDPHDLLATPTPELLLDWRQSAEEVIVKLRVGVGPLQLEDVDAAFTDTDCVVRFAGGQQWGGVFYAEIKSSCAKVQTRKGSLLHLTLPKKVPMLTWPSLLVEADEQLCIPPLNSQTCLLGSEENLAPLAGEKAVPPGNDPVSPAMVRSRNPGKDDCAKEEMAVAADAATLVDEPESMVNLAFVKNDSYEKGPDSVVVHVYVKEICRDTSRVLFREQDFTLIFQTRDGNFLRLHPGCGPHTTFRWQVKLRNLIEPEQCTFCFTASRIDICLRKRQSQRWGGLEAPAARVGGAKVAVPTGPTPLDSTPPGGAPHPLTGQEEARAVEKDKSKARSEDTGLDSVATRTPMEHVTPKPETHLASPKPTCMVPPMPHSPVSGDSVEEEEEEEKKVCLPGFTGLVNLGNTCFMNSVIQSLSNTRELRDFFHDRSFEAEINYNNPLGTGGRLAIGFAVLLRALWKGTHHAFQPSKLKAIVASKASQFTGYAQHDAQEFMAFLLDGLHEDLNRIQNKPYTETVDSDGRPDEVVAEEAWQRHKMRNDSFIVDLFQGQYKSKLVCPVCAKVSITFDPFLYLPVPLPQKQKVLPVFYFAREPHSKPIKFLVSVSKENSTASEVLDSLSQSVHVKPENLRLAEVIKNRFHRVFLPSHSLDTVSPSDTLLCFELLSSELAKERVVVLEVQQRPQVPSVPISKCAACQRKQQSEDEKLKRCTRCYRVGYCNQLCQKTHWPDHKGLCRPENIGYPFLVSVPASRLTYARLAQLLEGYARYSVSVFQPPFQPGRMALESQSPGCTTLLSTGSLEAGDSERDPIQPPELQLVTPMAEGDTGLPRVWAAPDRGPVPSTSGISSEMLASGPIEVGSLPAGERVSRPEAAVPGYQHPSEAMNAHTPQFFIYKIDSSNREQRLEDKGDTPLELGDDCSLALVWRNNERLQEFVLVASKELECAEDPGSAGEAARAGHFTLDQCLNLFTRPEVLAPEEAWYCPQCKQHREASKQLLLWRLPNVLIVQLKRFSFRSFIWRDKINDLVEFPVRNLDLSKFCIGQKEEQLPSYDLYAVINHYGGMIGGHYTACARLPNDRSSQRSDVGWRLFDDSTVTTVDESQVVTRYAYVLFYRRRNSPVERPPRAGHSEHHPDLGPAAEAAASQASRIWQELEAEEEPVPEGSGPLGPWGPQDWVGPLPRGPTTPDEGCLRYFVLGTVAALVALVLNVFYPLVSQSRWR
Test: USP19 fluorescence polarisation (FP) homogeneous assay
Type: biochemical
Parameters: Full-length USP19 was purchased from Boston Biochem (E-576); purchased Boston Biochem E-576
Details: Ubiquitin-Lys-TAMRA substrate, full-length USP19 2.5 nM, average of at least two duplicate experiments
Procedure, shortened: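 Inhibitors serially diluted in buffer (200 μM to 2 μM, 8-18 points) and preincubated 30 min at RT before starting with 500 nM Ub substrate.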

IC50, < 0.5 µM:
C[C@H](CC(F)(F)F)C(=O)N1CC[C@@](O)(Cn2cc(C(=O)N(C)C)c(-c3ccccc3)cc2=O)C2(CCCC2)C1 [Example 216, 1-(((S)-10-Hydroxy-7-((R)-4,4,4-trifluoro-2-methylbutanoyl)-7-azaspiro[4.5]decan-10-yl)methyl)-N,N-dimethyl-6-oxo-4-phenyl-1,6-dihydropyridine-3-carboxamide]
C[C@H](CC(F)(F)F)C(=O)N1CC[C@@](O)(Cn2cc(C(=O)N3CCNCC3)c(-c3ccccc3)cc2=O)C2(CCCC2)C1 [Example 217, 1-(((S)-10-Hydroxy-7-((R)-4,4,4-trifluoro-2-methylbutanoyl)-7-azaspiro[4.5]decan-10-yl)methyl)-4-phenyl-5-(piperazine-1-carbonyl)pyridin-2(1H)-one]
C[C@H](CC1CCC1)C(=O)N1CC[C@@](O)(Cn2cc(C(=O)N(C)C)c(-c3ccccc3F)cc2=O)C2(CCCC2)C1 [Example 222, 1-(((S)-7-((R)-3-Cyclobutyl-2-methylpropanoyl)-10-hydroxy-7-azaspiro[4.5]decan-10-yl)methyl)-4-(2-fluorophenyl)-N,N-dimethyl-6-oxo-1,6-dihydropyridine-3-carboxamide]
C[C@H](CC1CCC1)C(=O)N1CC[C@@](O)(Cn2cc(C(=O)N3CCNCC3)c(-c3ccccc3F)cc2=O)C2(CCCC2)C1 [Example 224, 1-(((S)-7-((R)-3-Cyclobutyl-2-methylpropanoyl)-10-hydroxy-7-azaspiro[4.5]decan-10-yl)methyl)-4-(2-fluorophenyl)-5-(piperazine-1-carbonyl)pyridin-2(1 H)-one]
C[C@H](CC1CCCCC1)C(=O)N1CC[C@@](O)(Cn2cc(C(=O)N(C)C)c(-c3ccccc3F)cc2=O)C2(CCCC2)C1 [Example 226, 1-(((S)-7-((R)-3-Cyclohexyl-2-methylpropanoyl)-10-hydroxy-7-azaspiro[4.5]decan-10-yl)methyl)-4-(2-fluorophenyl)-N,N-dimethyl-6-oxo-1,6-dihydropyridine-3-carboxamide]
C[C@H](CC1CCCCC1)C(=O)N1CC[C@@](O)(Cn2cc(C(=O)N3CCNCC3)c(-c3ccccc3F)cc2=O)C2(CCCC2)C1 [Example 227, 1-(((S)-7-((R)-3-Cyclohexyl-2-methylpropanoyl)-10-hydroxy-7-azaspiro[4.5]decan-10-yl)methyl)-4-(2-fluorophenyl)-5-(piperazine-1-carbonyl)pyridin-2(1 H)-one]
C[C@H](CC1CCCCC1)C(=O)N1CC[C@@](O)(Cn2cc(C(=O)N3CCC(O)CC3)c(-c3ccccc3)cc2=O)C(C)(C)C1 [Example 228, 1-(((S)-1-((R)-3-Cyclohexyl-2-methylpropanoyl)-4-hydroxy-3,3-dimethylpiperidin-4-yl)methyl)-5-(4-hydroxypiperidine-1-carbonyl)-4-phenylpyridin-2(1 H)-one]
C[C@H](CC1CCCCC1)C(=O)N1CC[C@@](O)(Cn2cc(C(=O)N(C)C)c(C3CC3)cc2=O)C2(CCCC2)C1 [Example 232, 1-(((S)-7-((R)-3-Cyclohexyl-2-methylpropanoyl)-10-hydroxy-7-azaspiro[4.5]decan-10-yl)methyl)-4-cyclopropyl-N,N-dimethyl-6-oxo-1,6-dihydropyridine-3-carboxamide]
C[C@H](CC1CCCCC1)C(=O)N1CC[C@@](O)(Cn2cc(C(=O)N3CCNCC3)c(C3CC3)cc2=O)C2(CCCC2)C1 [Example 233, 1-(((S)-7-((R)-3-Cyclohexyl-2-methylpropanoyl)-10-hydroxy-7-azaspiro[4.5]decan-10-yl)methyl)-4-cyclopropyl-5-(piperazine-1-carbonyl)pyridin-2(1H)-one]
C[C@H](CC1CCC1)C(=O)N1CC[C@@](O)(Cn2cc(C(=O)N3CCNCC3)c(-c3ccccc3F)cc2=O)C(C)(C)C1 [Example 236, 1-(((S)-1-((R)-3-Cyclobutyl-2-methylpropanoyl)-4-hydroxy-3,3-dimethylpiperidin-4-yl)methyl)-4-(2-fluorophenyl)-5-(piperazine-1-carbonyl)pyridin-2(1 H)-one]
C[C@H](CC1CCCCC1)C(=O)N1CCC(O)(Cn2cc(C(=O)N(C)C)c(-c3ccccc3)cc2=O)C2(CCCCC2)C1 (stereo partly drawn) [Example 237, 1-((2-((R)-3-Cyclohexyl-2-methylpropanoyl)-5-hydroxy-2-azaspiro[5.5]undecan-5-yl)methyl)-N,N-dimethyl-6-oxo-4-phenyl-1,6-dihydropyridine-3-carboxamide]
C[C@H](CC1CCCCC1)C(=O)N1CCC(O)(Cn2cc(C(=O)N3CCNCC3)c(-c3ccccc3)cc2=O)C2(CCCCC2)C1 (stereo partly drawn) [Example 238, 1-((2-((R)-3-Cyclohexyl-2-methylpropanoyl)-5-hydroxy-2-azaspiro[5.5]undecan-5-yl)methyl)-4-phenyl-5-(piperazine-1-carbonyl)pyridin-2(1H)-one]
C[C@H](CC1CCCCC1)C(=O)N1CC[C@@](O)(Cn2cc(C(=O)N3CCOCC3)c(-c3ccccc3)cc2=O)C2(CCCC2)C1 [Example 239, 1-(((S)-7-((R)-3-Cyclohexyl-2-methylpropanoyl)-10-hydroxy-7-azaspiro[4.5]decan-10-yl)methyl)-5-(morpholine-4-carbonyl)-4-phenylpyridin-2(1H)-one]
C[C@H](CC1CCCCC1)C(=O)N1CC[C@@](O)(Cn2cc(C(=O)N3CCN(C)CC3)c(-c3ccccc3)cc2=O)C2(CCCC2)C1 [Example 240, 1-(((S)-7-((R)-3-Cyclohexyl-2-methylpropanoyl)-10-hydroxy-7-azaspiro[4.5]decan-10-yl)methyl)-5-(4-methylpiperazine-1-carbonyl)-4-phenylpyridin-2(1 H)-one]
CN(C)C(=O)c1cn(C[C@]2(O)CCN(C(=O)[C@H](CO)CC(F)(F)F)CC23CCCC3)c(=O)cc1-c1ccccc1 [Example 247, 1-(((S)-10-Hydroxy-7-((S)-4,4,4-trifluoro-2-(hydroxymethyl)butanoyl)-7-azaspiro[4.5]decan-10-yl)methyl)-N,N-dimethyl-6-oxo-4-phenyl-1,6-dihydropyridine-3-carboxamide]
O=C(c1cn(C[C@]2(O)CCN(C(=O)[C@H](CO)CC(F)(F)F)CC23CCCC3)c(=O)cc1-c1ccccc1)N1CCOCC1 [Example 248, 1-(((S)-10-Hydroxy-7-((S)-4,4,4-trifluoro-2-(hydroxymethyl)butanoyl)-7-azaspiro[4.5]decan-10-yl)methyl)-5-(morpholine-4-carbonyl)-4-phenylpyridin-2(1H)-one]
O=C(c1cn(C[C@]2(O)CCN(C(=O)[C@H](CO)CC(F)(F)F)CC23CCCC3)c(=O)cc1-c1ccccc1)N1CCNCC1 [Example 249, 1-(((S)-10-Hydroxy-7-((S)-4,4,4-trifluoro-2-(hydroxymethyl)butanoyl)-7-azaspiro[4.5]decan-10-yl)methyl)-4-phenyl-5-(piperazine-1-carbonyl)pyridin-2(1H)-one]
C[C@H](CC(F)(F)F)C(=O)N1CC[C@@](O)(Cn2cc(C(=O)N3CCOCC3)c(-c3ccccc3)cc2=O)C2(CCCC2)C1 [Example 250, 1-(((S)-10-Hydroxy-7-((R)-4,4,4-trifluoro-2-methylbutanoyl)-7-azaspiro[4.5]decan-10-yl)methyl)-5-(morpholine-4-carbonyl)-4-phenylpyridin-2(1H)-one]
C[C@H](CC(F)(F)F)C(=O)N1CC[C@@](O)(Cn2cc(C(=O)N3CCN(C)CC3)c(-c3ccccc3)cc2=O)C2(CCCC2)C1 [Example 251, 1-(((S)-10-Hydroxy-7-((R)-4,4,4-trifluoro-2-methylbutanoyl)-7-azaspiro[4.5]decan-10-yl)methyl)-5-(4-methylpiperazine-1-carbonyl)-4-phenylpyridin-2(1 H)-one]
